These results are taken from patent publication US11987588B2, “Modulators of the beta-3 adrenergic receptor useful for the treatment or prevention of heart failure and disorders related thereto” (Arena Pharmaceuticals, Inc., priority 2017, dated 2024).

The experiment has as its target Beta-3 Adrenergic Receptor (Homo sapiens (Human), UniProt P13945). Put plainly: Homogeneous Time-Resolved Fluorescence (HTRF) cAMP antagonist assay, IC50 determination. The format is cell-based. Particulars: CHO-K1 cells stably expressing recombinant receptor, isoproterenol at EC90. The procedure, abridged: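 In this functional readout, recombinant CHO-K1 cells received compound, then isoproterenol at its EC90. After 1 h at room temperature, cAMP levels were determined by HTRF using an on-plate standard curve, and IC50 values were fitted.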

Structures are written as SMILES.

Sequence of Beta-3 Adrenergic Receptor (P13945 whole entry, species assumed): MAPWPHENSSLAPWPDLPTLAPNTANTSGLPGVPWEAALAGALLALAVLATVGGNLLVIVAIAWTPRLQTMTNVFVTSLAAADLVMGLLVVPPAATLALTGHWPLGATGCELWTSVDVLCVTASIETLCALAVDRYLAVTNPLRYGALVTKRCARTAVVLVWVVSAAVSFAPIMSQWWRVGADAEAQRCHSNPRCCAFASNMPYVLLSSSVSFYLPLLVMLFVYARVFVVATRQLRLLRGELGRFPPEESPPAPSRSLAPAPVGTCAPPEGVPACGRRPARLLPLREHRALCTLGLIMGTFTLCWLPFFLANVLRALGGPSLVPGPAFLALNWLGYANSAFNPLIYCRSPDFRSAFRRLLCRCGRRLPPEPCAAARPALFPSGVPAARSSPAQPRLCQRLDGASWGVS

What is called IC50 is the concentration needed to halve the response being measured. For `CNS(=O)(=O)c1cccc(OC[C@@H](O)CNC2COC3(CCN(S(=O)(=O)c4cccc(-c5ccc(CNCC(C)C)cc5)c4)CC3)C2)c1` (stereo partly drawn) [Compound 319, 3-((2S)-2-hydroxy-3-(8-(4′-((isobutylamino)methyl)biphenyl-3-ylsulfonyl)-1-oxa-8-azaspiro[4.5]decan-3-ylamino)propoxy)-N-methylbenzenesulfonamide], the IC50 stood at 34.3 nM.

With `CNS(=O)(=O)c1cccc(OC[C@@H](O)CNC2COC3(CCN(S(=O)(=O)c4ccccc4C(F)(F)F)CC3)C2)c1` (stereo partly drawn) [Compound 33, 3-((2S)-2-hydroxy-3-(8-(2-(trifluoromethyl)phenylsulfonyl)-1-oxa-8-azaspiro[4.5]decan-3-ylamino)propoxy)-N-methylbenzenesulfonamide], the IC50 turned out to be 17.6 nM.

For the compound `O=S(=O)(NCC(F)(F)F)c1cccc(OC[C@@H](O)CNC2COC3(CCN(S(=O)(=O)c4ccc5ccccc5c4)CC3)C2)c1` (stereo partly drawn) [Compound 5, 3-((2S)-2-hydroxy-3-(8-(naphthalen-2-ylsulfonyl)-1-oxa-8-azaspiro[4.5]decan-3-ylamino)propoxy)-N-(2,2,2-trifluoroethyl)benzenesulfonamide], the IC50 was 220 nM.

With `CNS(=O)(=O)c1cccc(OC[C@@H](O)CN[C@H]2COC3(CCN(S(=O)(=O)c4cnc5[nH]cc(Cl)c5c4)CC3)C2)c1` [Compound 510, 3-((S)-3-((R)-8-(3-chloro-1H-pyrrolo[2,3-b]pyridin-5-ylsulfonyl)-1-oxa-8-azaspiro[4.5]decan-3-ylamino)-2-hydroxypropoxy)-N-methylbenzenesulfonamide], the IC50 was 4.89 nM.

As to `CNS(=O)(=O)c1cccc(OC[C@@H](O)CNC2COC3(CCN(S(=O)(=O)c4ccc(OC(C)C)cc4)CC3)C2)c1` (stereo partly drawn) [Compound 137, 3-((2S)-2-hydroxy-3-(8-(4-isopropoxyphenylsulfonyl)-1-oxa-8-azaspiro[4.5]decan-3-ylamino)propoxy)-N-methylbenzenesulfonamide], the IC50 is 23.8 nM.

Turning to `COCCN(C)S(=O)(=O)c1cccc(OC[C@@H](O)CNC2COC3(CCN(S(=O)(=O)c4ccc5ccccc5c4)CC3)C2)c1` (stereo partly drawn) [Compound 60, 3-((2S)-2-hydroxy-3-(8-(naphthalen-2-ylsulfonyl)-1-oxa-8-azaspiro[4.5]decan-3-ylamino)propoxy)-N-(2-methoxyethyl)-N-methylbenzenesulfonamide], the IC50 was 58.8 nM.

As to `CN(C)S(=O)(=O)c1cccc(OC[C@@H](O)CNC2COC3(CCN(S(=O)(=O)c4cccc(-c5ccc(CC#N)cc5)c4)CC3)C2)c1` (stereo partly drawn) [Compound 277, 3-((2S)-3-(8-(4′-(cyanomethyl)biphenyl-3-ylsulfonyl)-1-oxa-8-azaspiro[4.5]decan-3-ylamino)-2-hydroxypropoxy)-N,N-dimethylbenzenesulfonamide], the IC50 is 46.7 nM.

Regarding `CNS(=O)(=O)c1cccc(OC[C@@H](O)CNC2COC3(CCN(S(=O)(=O)c4ccc(Cl)c(OC)c4)CC3)C2)c1` (stereo partly drawn) [Compound 206, 3-((2S)-3-(8-(4-chloro-3-methoxyphenylsulfonyl)-1-oxa-8-azaspiro[4.5]decan-3-ylamino)-2-hydroxypropoxy)-N-methylbenzenesulfonamide], the IC50 turned out to be 9.62 nM.

For the compound `CCn1cc(S(=O)(=O)N2CCC3(CC2)C[C@@H](NC[C@H](O)COc2cccc(S(=O)(=O)NC)c2)CO3)c(=O)c2ccc(F)cc21` [Compound 546, 3-((S)-3-((R)-8-(1-ethyl-7-fluoro-4-oxo-1,4-dihydroquinolin-3-ylsulfonyl)-1-oxa-8-azaspiro[4.5]decan-3-ylamino)-2-hydroxypropoxy)-N-methylbenzenesulfonamide], the IC50 was 53 nM.

For `CNS(=O)(=O)c1cccc(OC[C@@H](O)CN[C@@H]2COC3(CCN(S(=O)(=O)c4cccc(-c5ccc(CN)cc5)c4)CC3)C2)c1` [Compound 288, 3-((S)-3-((S)-8-(4′-(aminomethyl)biphenyl-3-ylsulfonyl)-1-oxa-8-azaspiro[4.5]decan-3-ylamino)-2-hydroxypropoxy)-N-methylbenzenesulfonamide], the IC50 was determined as 13.4 nM.

For `CNS(=O)(=O)c1cccc(OC[C@@H](O)CN[C@@H]2COC3(CCN(S(=O)(=O)c4cnc5ccccc5c4)CC3)C2)c1` [Compound 335, 3-((S)-2-hydroxy-3-((S)-8-(quinolin-3-ylsulfonyl)-1-oxa-8-azaspiro[4.5]decan-3-ylamino)propoxy)-N-methylbenzenesulfonamide], the IC50 was found to be 12.1 nM.

`CNS(=O)(=O)c1cccc(OC[C@@H](O)CN[C@H]2COC3(CCN(S(=O)(=O)c4ccc5[nH]cnc5c4)CC3)C2)c1` [Compound 503, 3-((S)-3-((R)-8-(1H-benzo[d]imidazol-5-ylsulfonyl)-1-oxa-8-azaspiro[4.5]decan-3-ylamino)-2-hydroxypropoxy)-N-methylbenzenesulfonamide]: the half-maximal inhibitory concentration (IC50) is 28.9 nM.

Turning to `CNS(=O)(=O)c1cccc(OC[C@@H](O)CNC2COC3(CCN(S(=O)(=O)c4ccc(-c5ccc(CN)cc5)cc4OC(F)(F)F)CC3)C2)c1` (stereo partly drawn) [Compound 403, 3-((2S)-3-(8-(4′-(aminomethyl)-3-(trifluoromethoxy)biphenyl-4-ylsulfonyl)-1-oxa-8-azaspiro[4.5]decan-3-ylamino)-2-hydroxypropoxy)-N-methylbenzenesulfonamide], the IC50 turned out to be 80.6 nM.

On to `NS(=O)(=O)c1cccc(OC[C@@H](O)CN[C@H]2COC3(CCN(S(=O)(=O)c4ccc5c(c4)CCCO5)CC3)C2)c1` [Compound 565, 3-((S)-3-((R)-8-(chroman-6-ylsulfonyl)-1-oxa-8-azaspiro[4.5]decan-3-ylamino)-2-hydroxypropoxy)benzenesulfonamide], for which the IC50 is 51.2 nM.

Regarding `CNS(=O)(=O)c1cccc(OC[C@@H](O)CN[C@@H]2COC3(CCN(S(=O)(=O)c4cccc(-c5ccc(CNC(C)C)cc5)c4)CC3)C2)c1` [Compound 359, 3-((S)-2-hydroxy-3-((S)-8-(4′-((isopropylamino)methyl)biphenyl-3-ylsulfonyl)-1-oxa-8-azaspiro[4.5]decan-3-ylamino)propoxy)-N-methylbenzenesulfonamide], the IC50 came out at 17.9 nM.

On to `CNS(=O)(=O)c1cccc(OC[C@@H](O)CN[C@H]2COC3(CCN(S(=O)(=O)c4cnc5[nH]c(=O)n(C)c5c4)CC3)C2)c1` [Compound 522, 3-((S)-2-hydroxy-3-((R)-8-(1-methyl-2-oxo-2,3-dihydro-1H-imidazo[4,5-b]pyridin-6-ylsulfonyl)-1-oxa-8-azaspiro[4.5]decan-3-ylamino)propoxy)-N-methylbenzenesulfonamide], for which the IC50 came out at 22.2 nM.

For the compound `CNS(=O)(=O)c1cccc(OC[C@@H](O)CN[C@H]2COC3(CCN(S(=O)(=O)c4ccc5ncccc5c4)CC3)C2)c1` [Compound 344, 3-((S)-2-hydroxy-3-((R)-8-(quinolin-6-ylsulfonyl)-1-oxa-8-azaspiro[4.5]decan-3-ylamino)propoxy)-N-methylbenzenesulfonamide], the IC50 was found to be 42.7 nM.

`CNS(=O)(=O)c1cccc(OC[C@@H](O)CNC2COC3(CCN(S(=O)(=O)c4cccc(C)c4C)CC3)C2)c1` (stereo partly drawn) [Compound 265, 3-((2S)-3-(8-(2,3-dimethylphenylsulfonyl)-1-oxa-8-azaspiro[4.5]decan-3-ylamino)-2-hydroxypropoxy)-N-methylbenzenesulfonamide]: the IC50 came out at 28.8 nM.

In the case of `CNS(=O)(=O)c1cccc(OC[C@@H](O)CNC2COC3(CCN(S(=O)(=O)c4cc(Cl)c(Cl)s4)CC3)C2)c1` (stereo partly drawn) [Compound 178, 3-((2S)-3-(8-(4,5-dichlorothiophen-2-ylsulfonyl)-1-oxa-8-azaspiro[4.5]decan-3-ylamino)-2-hydroxypropoxy)-N-methylbenzenesulfonamide], the IC50 amounted to 20.8 nM.

On to `CNS(=O)(=O)c1cccc(OC[C@@H](O)CNC2COC3(CCN(S(=O)(=O)c4cc(OC)ccc4F)CC3)C2)c1` (stereo partly drawn) [Compound 241, 3-((2S)-3-(8-(2-fluoro-5-methoxyphenylsulfonyl)-1-oxa-8-azaspiro[4.5]decan-3-ylamino)-2-hydroxypropoxy)-N-methylbenzenesulfonamide], for which the IC50 was determined as 27.8 nM.

Regarding `CNS(=O)(=O)c1cccc(OC[C@@H](O)CNC2COC3(CCN(S(=O)(=O)c4ccccc4F)CC3)C2)c1` (stereo partly drawn) [Compound 34, 3-((2S)-3-(8-(2-fluorophenylsulfonyl)-1-oxa-8-azaspiro[4.5]decan-3-ylamino)-2-hydroxypropoxy)-N-methylbenzenesulfonamide], the concentration for half-maximal inhibition (IC50) was 24.2 nM.

As to `CNS(=O)(=O)c1cccc(OC[C@@H](O)CNC2COC3(CCN(S(=O)(=O)c4ccccc4Br)CC3)C2)c1` (stereo partly drawn) [Compound 54, 3-((2S)-3-(8-(2-bromophenylsulfonyl)-1-oxa-8-azaspiro[4.5]decan-3-ylamino)-2-hydroxypropoxy)-N-methylbenzenesulfonamide], the IC50 came to 17.4 nM.

Turning to `CNS(=O)(=O)c1cccc(OC[C@@H](O)CNC2COC3(CCN(S(=O)(=O)c4cc(C)ccc4F)CC3)C2)c1` (stereo partly drawn) [Compound 150, 3-((2S)-3-(8-(2-fluoro-5-methylphenylsulfonyl)-1-oxa-8-azaspiro[4.5]decan-3-ylamino)-2-hydroxypropoxy)-N-methylbenzenesulfonamide], the IC50 stood at 13.5 nM.

Consider `CNS(=O)(=O)c1cccc(OC[C@@H](O)CNC2COC3(CCN(S(=O)(=O)c4cccc(-c5ccc(CNC(=O)CN)cc5)c4)CC3)C2)c1` (stereo partly drawn) [Compound 353, 2-amino-N-((3′-(3-((S)-2-hydroxy-3-(3-(N-methylsulfamoyl)phenoxy)propylamino)-1-oxa-8-azaspiro[4.5]decan-8-ylsulfonyl)biphenyl-4-yl)methyl)acetamide], for which the IC50 turned out to be 58 nM.

With `CNS(=O)(=O)c1cccc(OC[C@@H](O)CN[C@@H]2COC3(CCN(S(=O)(=O)c4ccc(OC)c(C)c4)CC3)C2)c1` [Compound 266, 3-((S)-2-hydroxy-3-((S)-8-(4-methoxy-3-methylphenylsulfonyl)-1-oxa-8-azaspiro[4.5]decan-3-ylamino)propoxy)-N-methylbenzenesulfonamide], the IC50 was 24.7 nM.
